# Test results as given in patent US20240269139A1, “COMPOUNDS FOR TARGETED PROTEIN DEGRADATION OF KINASES” (DANA-FARBER CANCER INSTITUTE, INC., priority 2020, published 2024).
# Like-named read-outs stand apart in the source and are kept apart here.
# What was measured:
# Format in all cases: cell-based
# [1] = target: protein kinases (human kinome) (Homo sapiens, UniProt Q8N5S9); settings: experiment wp117
# [2] = target: protein kinases (human kinome) (Homo sapiens, UniProt Q9H999); settings: PANK3 (Q9H999); experiment wp152
# [3] = target: protein kinases (human kinome) (Homo sapiens, UniProt O75460); settings: experiment wp076
# [4] = target: protein kinases (human kinome) (Homo sapiens, UniProt A2RU49); settings: protein HYKK (A2RU49); experiment wp117; down
# [5] = target: T1, protein kinases (human kinome) (Homo sapiens, UniProt Q96S38); settings: for logFC RPS6KC1 (Q96S38): direction of change down; for logFC: RPS6KC1 (Q96S38)
# T1 sequence (Q96S38 1-1066): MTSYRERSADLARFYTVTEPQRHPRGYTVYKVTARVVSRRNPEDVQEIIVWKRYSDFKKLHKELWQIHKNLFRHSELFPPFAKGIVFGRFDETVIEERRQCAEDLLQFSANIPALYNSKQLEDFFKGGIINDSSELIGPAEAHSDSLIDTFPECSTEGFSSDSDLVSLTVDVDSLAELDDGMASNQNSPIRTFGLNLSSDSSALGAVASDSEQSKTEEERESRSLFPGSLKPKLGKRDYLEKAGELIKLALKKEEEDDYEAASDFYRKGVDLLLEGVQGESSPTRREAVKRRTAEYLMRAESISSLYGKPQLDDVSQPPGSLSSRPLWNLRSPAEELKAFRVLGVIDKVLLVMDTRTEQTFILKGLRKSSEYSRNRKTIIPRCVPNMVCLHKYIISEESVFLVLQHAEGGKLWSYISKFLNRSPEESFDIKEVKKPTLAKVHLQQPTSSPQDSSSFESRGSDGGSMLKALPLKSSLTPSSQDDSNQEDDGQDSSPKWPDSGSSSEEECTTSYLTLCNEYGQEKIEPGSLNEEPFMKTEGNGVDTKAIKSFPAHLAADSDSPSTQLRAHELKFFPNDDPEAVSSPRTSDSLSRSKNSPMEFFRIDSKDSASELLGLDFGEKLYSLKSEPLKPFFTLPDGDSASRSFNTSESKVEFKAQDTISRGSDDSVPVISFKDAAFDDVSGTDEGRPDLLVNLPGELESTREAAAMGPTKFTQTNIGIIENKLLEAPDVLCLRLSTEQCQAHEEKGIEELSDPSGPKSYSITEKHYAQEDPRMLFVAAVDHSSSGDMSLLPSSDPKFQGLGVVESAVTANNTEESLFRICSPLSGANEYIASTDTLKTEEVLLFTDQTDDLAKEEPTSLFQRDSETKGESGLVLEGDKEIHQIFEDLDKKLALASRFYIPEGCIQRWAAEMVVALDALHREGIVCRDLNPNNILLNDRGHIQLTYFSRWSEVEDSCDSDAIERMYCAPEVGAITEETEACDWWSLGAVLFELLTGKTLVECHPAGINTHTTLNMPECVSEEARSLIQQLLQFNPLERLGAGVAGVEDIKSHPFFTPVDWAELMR
# [6] = target: protein kinases (human kinome) (Homo sapiens, UniProt Q13131); settings: for logFC PRKAA1 (Q13131): direction down
# [7] = target: protein kinases (human kinome) (Homo sapiens, UniProt P50750)
# [8] = target: protein kinases (human kinome) (Homo sapiens, UniProt Q8TCT0); settings: protein CERK (Q8TCT0); experiment wp131; down
# [9] = target: T2, protein kinases (human kinome) (Homo sapiens, UniProt Q13043); settings: for logFC: STK4 (Q13043-1)
# T2 sequence (Q13043 1-487): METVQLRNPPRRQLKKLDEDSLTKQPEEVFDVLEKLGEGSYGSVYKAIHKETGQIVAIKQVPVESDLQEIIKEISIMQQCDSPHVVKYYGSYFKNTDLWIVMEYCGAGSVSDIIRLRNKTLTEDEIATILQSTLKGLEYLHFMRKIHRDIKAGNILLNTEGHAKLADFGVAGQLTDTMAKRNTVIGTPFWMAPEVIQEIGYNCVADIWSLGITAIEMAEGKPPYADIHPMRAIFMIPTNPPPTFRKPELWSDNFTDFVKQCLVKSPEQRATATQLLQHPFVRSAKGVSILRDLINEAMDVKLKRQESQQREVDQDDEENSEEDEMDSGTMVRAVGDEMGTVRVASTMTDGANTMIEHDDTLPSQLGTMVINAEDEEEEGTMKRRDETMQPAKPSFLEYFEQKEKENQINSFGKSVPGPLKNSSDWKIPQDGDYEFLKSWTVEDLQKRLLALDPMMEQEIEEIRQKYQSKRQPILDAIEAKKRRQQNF
# Chain of protein kinases (human kinome) (Homo sapiens, UniProt Q13131) (Q13131 whole entry): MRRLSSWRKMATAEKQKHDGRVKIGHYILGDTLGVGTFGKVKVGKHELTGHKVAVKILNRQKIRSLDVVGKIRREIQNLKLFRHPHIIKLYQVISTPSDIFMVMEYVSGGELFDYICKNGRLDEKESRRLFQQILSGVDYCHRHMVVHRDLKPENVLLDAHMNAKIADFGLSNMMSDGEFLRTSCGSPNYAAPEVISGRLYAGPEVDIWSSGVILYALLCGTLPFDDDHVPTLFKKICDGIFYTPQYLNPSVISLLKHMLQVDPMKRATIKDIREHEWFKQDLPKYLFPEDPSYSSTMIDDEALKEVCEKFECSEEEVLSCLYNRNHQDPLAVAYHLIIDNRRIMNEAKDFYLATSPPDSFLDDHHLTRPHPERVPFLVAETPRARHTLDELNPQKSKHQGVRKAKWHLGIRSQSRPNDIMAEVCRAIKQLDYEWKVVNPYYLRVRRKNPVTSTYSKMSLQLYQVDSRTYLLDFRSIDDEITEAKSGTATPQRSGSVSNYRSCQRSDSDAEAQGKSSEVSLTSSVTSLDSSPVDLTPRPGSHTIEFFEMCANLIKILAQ
# Chain of protein kinases (human kinome) (Homo sapiens, UniProt P50750) (P50750 whole entry): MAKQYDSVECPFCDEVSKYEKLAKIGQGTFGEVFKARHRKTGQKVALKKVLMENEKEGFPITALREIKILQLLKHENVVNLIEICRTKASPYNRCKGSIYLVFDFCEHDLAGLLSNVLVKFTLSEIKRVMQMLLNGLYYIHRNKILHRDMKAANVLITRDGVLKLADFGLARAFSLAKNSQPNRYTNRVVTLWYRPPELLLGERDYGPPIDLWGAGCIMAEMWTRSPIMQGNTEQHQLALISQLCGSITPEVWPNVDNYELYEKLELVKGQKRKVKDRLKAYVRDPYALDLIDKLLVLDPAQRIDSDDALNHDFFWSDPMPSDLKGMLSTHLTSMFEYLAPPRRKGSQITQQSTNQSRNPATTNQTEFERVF
# Chain of protein kinases (human kinome) (Homo sapiens, UniProt Q8N5S9) (Q8N5S9 whole entry): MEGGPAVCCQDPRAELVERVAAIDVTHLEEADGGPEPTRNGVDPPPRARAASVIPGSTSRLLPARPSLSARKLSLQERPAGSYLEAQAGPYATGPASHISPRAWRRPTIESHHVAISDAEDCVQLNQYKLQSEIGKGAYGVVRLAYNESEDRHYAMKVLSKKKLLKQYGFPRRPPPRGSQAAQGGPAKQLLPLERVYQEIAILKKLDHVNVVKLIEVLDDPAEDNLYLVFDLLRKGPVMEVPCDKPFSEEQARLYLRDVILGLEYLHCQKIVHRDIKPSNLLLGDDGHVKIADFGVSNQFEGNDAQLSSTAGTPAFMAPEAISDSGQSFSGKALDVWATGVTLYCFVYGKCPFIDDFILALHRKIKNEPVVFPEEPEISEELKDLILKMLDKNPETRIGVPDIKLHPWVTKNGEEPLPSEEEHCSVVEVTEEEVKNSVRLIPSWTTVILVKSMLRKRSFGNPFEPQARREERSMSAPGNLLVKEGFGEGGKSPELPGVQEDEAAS
# Chain of protein kinases (human kinome) (Homo sapiens, UniProt O75460) (O75460 19-977): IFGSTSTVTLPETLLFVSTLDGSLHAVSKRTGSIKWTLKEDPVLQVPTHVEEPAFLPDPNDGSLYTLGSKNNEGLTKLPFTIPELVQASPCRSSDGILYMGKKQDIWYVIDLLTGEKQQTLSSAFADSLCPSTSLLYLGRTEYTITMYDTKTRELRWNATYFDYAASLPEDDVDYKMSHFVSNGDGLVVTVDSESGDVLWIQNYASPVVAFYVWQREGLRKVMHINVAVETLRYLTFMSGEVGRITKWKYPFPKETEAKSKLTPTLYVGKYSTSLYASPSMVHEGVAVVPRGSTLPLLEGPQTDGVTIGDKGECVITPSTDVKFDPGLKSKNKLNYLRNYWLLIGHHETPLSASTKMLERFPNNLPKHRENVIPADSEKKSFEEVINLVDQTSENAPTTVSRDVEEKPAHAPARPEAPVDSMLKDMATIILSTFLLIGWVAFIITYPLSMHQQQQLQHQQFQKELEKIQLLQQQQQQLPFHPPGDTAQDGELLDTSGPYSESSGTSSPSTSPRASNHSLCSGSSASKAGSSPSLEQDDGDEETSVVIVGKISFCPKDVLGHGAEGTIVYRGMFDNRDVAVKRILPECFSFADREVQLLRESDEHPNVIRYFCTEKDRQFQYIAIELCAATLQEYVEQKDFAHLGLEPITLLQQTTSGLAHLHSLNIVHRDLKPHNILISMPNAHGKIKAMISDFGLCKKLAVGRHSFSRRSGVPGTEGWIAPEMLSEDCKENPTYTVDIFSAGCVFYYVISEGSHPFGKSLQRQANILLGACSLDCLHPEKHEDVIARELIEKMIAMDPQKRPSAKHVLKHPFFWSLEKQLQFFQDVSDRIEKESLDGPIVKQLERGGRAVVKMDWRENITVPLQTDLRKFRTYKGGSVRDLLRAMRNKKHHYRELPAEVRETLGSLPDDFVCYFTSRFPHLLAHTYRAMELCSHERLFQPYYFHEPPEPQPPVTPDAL
# Chain of protein kinases (human kinome) (Homo sapiens, UniProt Q9H999) (Q9H999 whole entry): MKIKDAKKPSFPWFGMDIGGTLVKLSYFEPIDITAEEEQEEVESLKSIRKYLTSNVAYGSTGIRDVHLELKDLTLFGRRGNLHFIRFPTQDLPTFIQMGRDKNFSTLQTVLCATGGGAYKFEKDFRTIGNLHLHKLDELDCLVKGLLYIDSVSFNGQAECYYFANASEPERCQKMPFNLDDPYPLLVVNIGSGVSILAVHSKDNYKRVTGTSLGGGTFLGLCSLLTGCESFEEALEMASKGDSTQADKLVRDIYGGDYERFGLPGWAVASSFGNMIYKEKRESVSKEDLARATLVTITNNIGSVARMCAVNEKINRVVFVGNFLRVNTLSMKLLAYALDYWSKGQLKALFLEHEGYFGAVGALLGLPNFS
# Chain of protein kinases (human kinome) (Homo sapiens, UniProt Q8TCT0) (Q8TCT0 whole entry): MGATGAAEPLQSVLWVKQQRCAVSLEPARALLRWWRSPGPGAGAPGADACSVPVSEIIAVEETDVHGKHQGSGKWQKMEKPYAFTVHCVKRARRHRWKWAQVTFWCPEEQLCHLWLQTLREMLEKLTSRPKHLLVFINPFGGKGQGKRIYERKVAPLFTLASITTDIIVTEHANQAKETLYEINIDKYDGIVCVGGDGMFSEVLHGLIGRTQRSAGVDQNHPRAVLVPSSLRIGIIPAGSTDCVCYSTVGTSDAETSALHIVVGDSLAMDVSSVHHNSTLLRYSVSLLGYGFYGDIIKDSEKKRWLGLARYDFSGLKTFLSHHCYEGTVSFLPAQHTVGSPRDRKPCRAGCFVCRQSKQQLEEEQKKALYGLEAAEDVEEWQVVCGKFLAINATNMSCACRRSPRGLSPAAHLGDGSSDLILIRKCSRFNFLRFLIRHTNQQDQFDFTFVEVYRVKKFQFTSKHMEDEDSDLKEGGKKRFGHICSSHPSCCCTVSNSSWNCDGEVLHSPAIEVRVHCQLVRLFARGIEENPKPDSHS
# Chain of protein kinases (human kinome) (Homo sapiens, UniProt A2RU49) (A2RU49 whole entry): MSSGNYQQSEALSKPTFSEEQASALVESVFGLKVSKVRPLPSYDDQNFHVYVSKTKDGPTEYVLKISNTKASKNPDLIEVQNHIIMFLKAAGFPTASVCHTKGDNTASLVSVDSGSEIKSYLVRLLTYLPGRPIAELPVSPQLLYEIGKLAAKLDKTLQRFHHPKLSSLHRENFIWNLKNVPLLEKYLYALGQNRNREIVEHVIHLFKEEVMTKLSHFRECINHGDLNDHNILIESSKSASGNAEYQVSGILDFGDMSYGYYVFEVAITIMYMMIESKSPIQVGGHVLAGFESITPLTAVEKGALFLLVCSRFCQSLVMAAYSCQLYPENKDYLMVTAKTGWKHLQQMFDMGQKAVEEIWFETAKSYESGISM
smiles,measurement,setting,value
"CS(=O)(=O)Nc1cccc(-c2csc3cnc(Nc4ccc(N5CCN(CCCCCOc6cccc7c6C(=O)N(C6CCC(=O)NC6=O)C7=O)CC5)cc4)nc23)c1 (stereo not shown) [DB0614, N-(3-(2-((4-(4-(5-((2-(2,6-Dioxopiperidin-3-yl)-1,3-dioxoisoindolin-4-yl)oxy)pentyl)piperazin-1-yl)phenyl)amino)thieno[3,2-d]pyrimidin-7-yl)phenyl)methanesulfonamide]",logFC,[1]; CAMKK1 (Q8N5S9),−0.471
same,logFC CAMKK1 (Q8N5S9),[1]; direction of change down,−0.471
"Cc1ccc(NC(=O)c2cccc(C(F)(F)F)c2)cc1N1Cc2cnc(Nc3ccc(N4CCN(Cc5cn(CCCCCOc6cccc7c6C(=O)N(C6CCC(=O)NC6=O)C7=O)nn5)CC4)nc3)nc2N(C)C1=O (stereo not shown) [DB0646, N-(3-(7-((6-(4-((1-(5-((2-(2,6-Dioxopiperidin-3-yl)-1,3-dioxoisoindolin-4-yl)oxy)pentyl)-1H-1,2,3-triazol-4-yl)methyl)piperazin-1-v)pyridin-3-yl)amino)-1-methyl-2-oxo-1,4-dihydropyrimido[4,5-d]pyrimidin-3(2H)-yl)-4-methylphenyl)-3-(trifluoromethyl)benzamide]",logFC,[2],−0.3534
O=C1CCC(N2C(=O)c3cccc(NCCCCCCCCN4CCC(NC(=O)c5[nH]ncc5NC(=O)c5c(Cl)cccc5Cl)CC4)c3C2=O)C(=O)N1 (stereo not shown) [MFH.5.126.1],logFC of ERN1 (O75460),[3],−0.4882
same,logFC ERN1,"[3]; protein ERN1 (O75460), down",−0.4882
"Cc1ncsc1-c1ccc([C@H](C)NC(=O)[C@@H]2C[C@@H](O)CN2C(=O)[C@@H](NC(=O)CCCCCN2CCN(c3ccc(Nc4ncc5scc(-c6cccc(NS(C)(=O)=O)c6)c5n4)cc3)CC2)C(C)(C)C)cc1 [RSS0680, (2S,4R)-1-((S)-3,3-Dimethyl-2-(6-(4-(4-((7-(3-(methylsulfonamido)phenyl)thieno[3,2-d]pyrimidin-2-yl)amino)phenyl)piperazin-1-yl)hexanamido)butanoyl)-4-hydroxy-N—((S)-1-(4-(4-methylthiazol-5yl)phenyl)ethyl)pyrrolidine-2-carboxamide]",logFC HYKK,[4],−0.3476
CC(C)S(=O)(=O)c1ccccc1Nc1nc(Nc2ccc(N3CCN(CCOCCNC(=O)CNc4cccc5c4C(=O)N(C4CCC(=O)NC4=O)C5=O)CC3)cc2)ncc1Cl (stereo not shown) [SK.3.91],logFC RPS6KC1 (Q96S38),[5]; Experiment wp105,−0.3327
same,logFC,[5]; experiment wp105,−0.3327
same,logFC,[5]; experiment wp107,−0.3623
same,logFC RPS6KC1 (Q96S38),[5]; experiment wp107,−0.3623
same,logFC of PRKAA1 (Q13131),"[6]; Experiment wp160, 2 hr",−0.3284
same,logFC PRKAA1 (Q13131),"[6]; Experiment wp160, 2 hr",−0.3284
same,logFC PRKAA1 (Q13131),"[6]; Experiment wp160, 4 hr",−0.6117
same,logFC of PRKAA1 (Q13131),[6]; Experiment wp172,−0.4542
same,logFC PRKAA1 (Q13131),[6]; Experiment wp172,−0.4542
same,logFC of PRKAA1 (Q13131),"[6]; experiment wp160, 4 hr",−0.6117
same,logFC CDK9 (P50750),"[7]; Experiment wp160, 2 hr",−0.404
same,logFC of CDK9 (P50750),"[7]; Experiment wp160, 2 hr",−0.404
same,logFC CDK9 (P50750),[7]; Experiment wp172,−1.423
same,logFC of CDK9 (P50750),[7]; Experiment wp172,−1.423
same,logFC CDK9 (P50750),"[7]; experiment wp160, 4 hr",−1.068
same,logFC of CDK9 (P50750),"[7]; experiment wp160, 4 hr",−1.068
CC(C)S(=O)(=O)c1ccccc1Nc1nc(Nc2ccc(N3CCN(CCOCCOCCNC(=O)CNc4cccc5c4C(=O)N(C4CCC(=O)NC4=O)C5=O)CC3)cc2)ncc1Cl (stereo not shown) [TL12.186],logFC CERK,[8],−0.3343
Nc1ncc(-c2ccc(S(=O)(=O)N(CCCNC(=O)CCOCCOCCOCCOCCOCCNc3cccc4c3C(=O)N(C3CCC(=O)NC3=O)C4=O)C3CC3)cc2)cc1-c1ccc2c(c1)CCNC2=O (stereo not shown) [WH.10417.099],logFC of STK4 (Q13043-1),[9]; Experiment wp103,−0.7387
same,logFC of STK4 (Q13043-1),[9]; Experiment wp107,−0.7188
same,logFC of STK4 (Q13043-1),[9]; Experiment wp172,−0.5983
same,logFC,[9]; experiment wp056,−0.7157
same,logFC,[9]; experiment wp103,−0.7387
same,logFC,[9]; experiment wp107,−0.7188
same,logFC,[9]; experiment wp172,−0.5983
same,logFC of STK4 (Q13043-1),[9]; experiment wp056,−0.7157
